Bridges are numbered along the chain shown (N, C = ends). Primed or numbered codes have the meaning given here. Where no end group is shown, it is not given here. [ ]: non-standard residue; d: D form. The star is where a group is joined. DOTA = O=C(O)CN1CCN(CC(=O)O)CCN(CC(=O)*)CCN(CC(=O)O)CC1; Biotin = O=C1N[C@H]2[C@H](CS[C@H]2CCCCC(=O)*)N1; Lys(Me2) = CN(C)CCCC[C@H](N)C(=O)O; PEG4 = NCCOCCOCCOCCOCCC(=O)O; PEG4′ = not defined here
Key:
[1] = Thermal stability (Tm) of B7-H3 miniprotein conjugates; type: physicochemical
Experimental: Thermal stability was assessed for several exemplary miniprotein conjugates and reported as Tm (e.g., see Table 7A).
As compared to unconstrained sequences (e.g., as in Table 2A and shown for C211 in Table 7A), those with disulfide bonds (e.g., as in Table 2C and shown for C234, C275, C294, and C309 in Table 7A) were more thermally stable (see Table 7A), and exemplary compounds with two disulfide bridges (C234, C275, and C309) were stable at higher temperatures than an exemplary compound with one disulfide bridge (C294).

[2] = tested on: opossum kidney proximal tubule cells; test: OK-PTC uptake assay of miniprotein conjugates in presence of scaffold A decoys; type: cell-based; conditions: compound 20 μM; for % Uptake reduction in the presence of a decoy C118: 20-fold molar excess of decoy C118; for % Uptake reduction in the presence of a decoy C119: 20-fold molar excess of decoy C119; for % Uptake reduction in the presence of a decoy C120: 20-fold molar excess of decoy C120
Experimental: This Example describes reduction of uptake of exemplary truncated and constrained B7-H3 miniprotein conjugates (C272, C308, C234, C394, C250, and C228) when combined with exemplary scaffold A decoys (C118, C119 and C120) as compared to no decoy. Uptake of compounds was evaluated in opossum kidney proximal tubule cells (as described in Example 5). Here, cells were treated with a compound in the presence or absence of a 20-fold molar excess of exemplary scaffold A decoys, C118, C119, and C120. Results depicting uptake of six exemplary B7-H3-targeting compounds, C272, C308, C234, C394, C250, and C228, in OK-PTC cells in the presence and absence of exemplary decoys C118, C119, and C120 (scaffold A decoys) are shown in Table 13. The B7-H3-targeting compounds were used at 20 μM and the decoys used at a 20-fold (with C272, C308, C234, C394, and C250) and 10-fold (with C228) molar excess.

[3] = In vitro metabolic stability, kidney brush border membrane preparations (KBBM); type: in vitro ADME; parameters: unit not given here; conditions: mouse kidney brush border membrane preparation, 37° C.
Experimental: (§1) Exemplary miniprotein conjugates were spiked into biological matrices at initial concentration between 1-2 μM. Tested matrices were varied by species (mouse, rat, human) and type (plasma, serum, and kidney brush border membrane preparations tested each from 0.625-100 μg/mL protein content). Tested conditions were incubated with TAs at 37° C. for 4 hours. At collection points of 0, 15, 30, 60, 120, 240 minutes, 50 μL of each condition were quenched by organic solvent (methanol or acetonitrile) or the addition of 4% phosphoric acid solution. Fractions of each quenched timepoint were subsequently assayed for parent TA concentration by high resolution LC-MS. Percent-parent-remaining-time plots were constructed from the ratio of each given time collection to the time-zero parent TA. Percent-parent-remaining in mouse serum and plasma for exemplary miniproteins are recorded in Table 8.

[4] = In vitro metabolic stability, plasma; type: in vitro ADME; parameters: unit not given here; conditions: 37° C.
Experimental: as §1

[5] = tested on: >6,500 different human proteins; test: Off-target binding, cell microarray platform (Retrogenix Assay) in HEK293 cells; conditions: biotin-labeled molecules
Experimental: To evaluate potential off-target binding, eight biotin-labeled molecules were tested in a cell microarray platform (Charles River Lab, Retrogenix Assay) having >6,500 different human proteins spanning diverse functions and subcellular locations.
Initially, two pools of molecules were tested. Pool #1 consisted of C298, C300, C302, C304, and pool #2 consisted of C306, C308, C310, and C312 at 2 μg/mL for each molecule. To perform this assay, HEK293 cells were plated on a dish and localized spots of cells were transiently over-expressed with a cDNA encoding for one of the >6,500 targets. Included in this library were two isoforms of CD276 (B7-H3) and B7-H3 related proteins (B7-1, B7-2, B7-H1/PD-L1, and B7-H2). The molecule pools were incubated on the fixed, over-expressing cell microarrays (n=2 per protein), and binding was visualized using Alexa Fluor 647 streptavidin fluorescence. All transfection efficiencies exceeded minimum thresholds for the microarray expression targets. Preliminary interactions identified from pooled results were re-spotted in duplicates, and each of the eight compounds were tested individually (n=2) at 2 μg/mL and/or in dose response against these targets as described above to validate the interactions.
All positive control interactions were strong and passed quality control. Specific interactions observed (median SNR≥1) confirmed on-target B7-H3 binding in two different isoforms for each of the eight test molecules. These interactions with the primary target occurred after fixation and in live cells (absence of fixation). No significant additional interactions were confirmed for any test molecules outside of B7-H3, indicating high specificity for the primary target (data not shown).

[6] = In vitro metabolic stability, kidney brush border membrane (KBBM), mouse; type: in vitro ADME; conditions: 37° C.
Source text: (§2) This Example describes in vitro metabolic stability of exemplary B7-H3 miniprotein conjugates.
(§3) Pharmacokinetic assessments are described in Example 18.

[7] = In vitro metabolic stability, plasma, mouse; type: in vitro ADME; conditions: 37° C.
Source text: as §2, §3

[8] = tested on: opossum kidney proximal tubule cells; test: Proximal tubule epithelial cell (OK cell) uptake assay relative to control C4; type: cell-based
Experimental: Inhibition constant (Ki) of each conjugate was measured using DELFIA as described herein.

CC[C@H](C)[C@@H]1NC(=O)[C@H](Cc2ccccc2)NC(=O)[C@H](C)NC(=O)[C@H](CCCCN(C)C)NC(=O)[C@H]([C@@H](C)CC)NC(=O)[C@H](CCC(N)=O)NC(=O)[C@H](C)NC(=O)[C@H](Cc2ccc(O)cc2)NC(=O)[C@H]([C@@H](C)O)NC(=O)[C@H](CC(C)C)NC(=O)[C@@H]2CSSC[C@@H](C(=O)N[C@@H](CO)C(N)=O)NC(=O)[C@H](CC(C)C)NC(=O)[C@H](CCC(=O)O)NC(=O)[C@H](CCCCN)NC(=O)[C@H](C)NC(=O)[C@H](CCC(=O)O)NC(=O)[C@H](CO)NC(=O)[C@H](CC(C)C)NC(=O)[C@H]([C@@H](C)CC)NC(=O)[C@H](CCC(=O)O)NC(=O)[C@H](CO)NC(=O)[C@H](CO)NC(=O)[C@H](CCC(N)=O)NC(=O)[C@H](CSSC[C@H](NC(=O)CCOCCOCCOCCOCCNC(=O)CCCC[C@@H]3SC[C@@H]4NC(=O)N[C@@H]43)C(=O)N[C@@H](C)C(=O)N[C@@H](CCCC[N+](C)(C)C)C(=O)N[C@@H](CCC(=O)O)C(=O)N[C@@H](CCCCN)C(=O)N[C@@H]([C@@H](C)CC)C(=O)N[C@@H](C)C(=O)N[C@@H](C)C(=O)N[C@@H](CC(C)C)C(=O)N[C@@H](CO)C(=O)N[C@@H](CCC(=O)O)C(=O)N[C@@H]([C@@H](C)CC)C(=O)N[C@@H]([C@@H](C)CC)C(=O)N[C@@H](Cc3c[nH]c4ccccc34)C(=O)N[C@@H](CC(C)C)C(=O)N3CCC[C@H]3C(=O)N2)NC(=O)[C@@H]2CCCN2C(=O)[C@H](CC(=O)O)NC(=O)[C@H](CC(=O)O)NC(=O)[C@H](CC(N)=O)NC(=O)[C@H](CC(C)C)NC(=O)[C@H](C)NC(=O)[C@H](C)NC1=O [Compound C234]
Tm (° C.) [1]: ~≥75 °C | % Uptake reduction in the presence of a decoy C118 [2]: 86.4% | % Uptake reduction in the presence of a decoy C119 [2]: 96.2% | % Uptake reduction in the presence of a decoy C120 [2]: 96.9%

CC[C@H](C)[C@@H]1NC(=O)[C@H](CCCCN)NC(=O)[C@H](CCC(=O)O)NC(=O)[C@H](CCCC[N+](C)(C)C)NC(=O)[C@H](C)NC(=O)[C@@H](NC(=O)CCOCCOCCOCCOCCNC(=O)CCCC[C@@H]2SC[C@@H]3NC(=O)N[C@@H]32)CSSC[C@@H]2NC(=O)[C@@H]3CCCN3C(=O)[C@H](CC(=O)O)NC(=O)[C@H](CC(=O)O)NC(=O)[C@H](CC(N)=O)NC(=O)[C@H](CC(C)C)NC(=O)[C@H](C)NC(=O)[C@H](CCCCNC)NC(=O)[C@H]([C@@H](C)CC)NC(=O)[C@H](Cc3ccccc3)NC(=O)[C@H](C)NC(=O)[C@H](CCCCNC)NC(=O)[C@H]([C@@H](C)CC)NC(=O)[C@H](CCC(N)=O)NC(=O)[C@H](C)NC(=O)[C@H](Cc3ccc(O)cc3)NC(=O)[C@H]([C@@H](C)O)NC(=O)[C@H](CC(C)C)NC(=O)[C@H](CSSC[C@@H](C(=O)N[C@@H](CO)C(N)=O)NC(=O)[C@H](CC(C)C)NC(=O)[C@H](CCC(=O)O)NC(=O)[C@H](CCCCNC)NC(=O)[C@H](C)NC(=O)[C@H](CCC(=O)O)NC(=O)[C@H](CO)NC(=O)[C@H](CC(C)C)NC(=O)[C@H]([C@@H](C)CC)NC(=O)[C@H](CCC(=O)O)NC(=O)[C@H](CO)NC(=O)[C@H](CO)NC(=O)[C@H](CCC(N)=O)NC2=O)NC(=O)[C@@H]2CCCN2C(=O)[C@H](CC(C)C)NC(=O)[C@H](Cc2c[nH]c3ccccc23)NC(=O)[C@H]([C@@H](C)CC)NC(=O)[C@H]([C@@H](C)CC)NC(=O)[C@H](CCC(=O)O)NC(=O)[C@H](CO)NC(=O)[C@H](CC(C)C)NC(=O)[C@H](C)NC(=O)[C@H](C)NC1=O [Compound C306]
In vitro Stability (mouse) - KBBM [3]: >12 | In vitro Stability (mouse) - Plasma [4]: >12 | background binding to untransfected HEK293 cells [5]: low-background binding

CC[C@H](C)[C@@H]1NC(=O)[C@H](Cc2ccccc2)NC(=O)[C@H](C)NC(=O)[C@H](CCCCNC)NC(=O)[C@H]([C@@H](C)CC)NC(=O)[C@H](CCC(N)=O)NC(=O)[C@H](C)NC(=O)[C@H](Cc2ccc(O)cc2)NC(=O)[C@H]([C@@H](C)O)NC(=O)[C@H](CC(C)C)NC(=O)[C@@H]2CSSC[C@@H](C(=O)N[C@@H](CO)C(N)=O)NC(=O)[C@H](CC(C)C)NC(=O)[C@H](CCC(=O)O)NC(=O)[C@H](CCCCNC)NC(=O)[C@H](C)NC(=O)[C@H](CCC(=O)O)NC(=O)[C@H](CO)NC(=O)[C@H](CC(C)C)NC(=O)[C@H]([C@@H](C)CC)NC(=O)[C@H](CCC(=O)O)NC(=O)[C@H](CO)NC(=O)[C@H](CO)NC(=O)[C@H](CCC(N)=O)NC(=O)[C@H](CSSC[C@H](NC(=O)CCOCCOCCOCCOCCNC(=O)CCCC[C@@H]3SC[C@@H]4NC(=O)N[C@@H]43)C(=O)N[C@@H](C)C(=O)N[C@@H](CCCC[N+](C)(C)C)C(=O)N[C@@H](CCC(=O)O)C(=O)N[C@@H](CCCCN)C(=O)N[C@@H]([C@@H](C)CC)C(=O)N[C@@H](C)C(=O)N[C@@H](C)C(=O)N[C@@H](CC(C)C)C(=O)N[C@@H](CO)C(=O)N[C@@H](CCC(=O)O)C(=O)N[C@@H]([C@@H](C)CC)C(=O)N[C@@H]([C@@H](C)CC)C(=O)N[C@@H](Cc3c[nH]c4ccccc34)C(=O)N[C@@H](CC(C)C)C(=O)N3CCC[C@H]3C(=O)N2)NC(=O)[C@@H]2CCCN2C(=O)[C@H](CC(=O)O)NC(=O)[C@H](CCCCNC)NC(=O)[C@H](CC(N)=O)NC(=O)[C@H](CC(C)C)NC(=O)[C@H](CCCCNC)NC(=O)[C@H](C)NC1=O [Compound C308]
% Uptake reduction in the presence of a decoy C118 [2]: 107.9% | % Uptake reduction in the presence of a decoy C119 [2]: 108.6% | % Uptake reduction in the presence of a decoy C120 [2]: 104.5% | background binding to untransfected HEK293 cells [5]: low-background binding

C41 ({DOTA-PEG4′}-AEALYAQEKIAALSEIIWLPNLTHGQIMAFIAALNNDPSQSSELLSEAEQLNDSQAPG-OH; also: In complexed by DOTA) [Compound C41]
In vitro Stability (mouse) - KBBM [6]: >12 | In vitro Stability (mouse) - Plasma [7]: >12

C44: B7-H3 miniprotein test article of Table 5 ({DOTA-PEG4′}-YAQEKIAALSEIIWLPNLTHGQIMAFIAALNNDPSQSSELLSEALALNDSQAPG; also: In complexed by DOTA) [Compound C44]
In vitro Stability (mouse) - KBBM [6]: >12 | In vitro Stability (mouse) - Plasma [7]: >12

{Biotin-PEG4}-CAREKIAALSEIIWLPCLTYAQIKAFIAALNDDPCQSSEILSEAKELCS-NH2 (disulfide 1-35, 17-48) [Compound C284]
% Uptake of C4 [8]: 56.6%

{Biotin-PEG4}-CAREKIAALSEIIWLPCLTYAQILAFIAALNDDPCQSSEILSEAKELCS-NH2 (disulfide 1-35, 17-48) [Compound C286]
% Uptake of C4 [8]: 26%

{Biotin-PEG4}-CAREKIAALSEIIWLPCLTYAQIQAFIAALNDDPCQSSEILSEAKELCS-NH2 (disulfide 1-35, 17-48) [Compound C290]
% Uptake of C4 [8]: 17%

{Biotin-PEG4}-CAREKIAALSEIIWLPCLTYAQIVAFIAALNDDPCQSSEILSEAKELCS-NH2 (disulfide 1-35, 17-48) [Compound C291]
% Uptake of C4 [8]: 30%

{Biotin-PEG4}-CAREKIAALSEIIWLPCLTYAQI[Lys(Me2)]AFIAALNDDPCQSSEILSEAKELCS-NH2 (disulfide 1-35, 17-48) [Compound C275]
Tm (° C.) [1]: ~≥75 °C | % Uptake of C4 [8]: 3%

Reference: patent publication US12691186B2, “B7-H3 miniproteins, conjugates, and uses thereof” (priority 2023, dated 2026)
